No end group written: not given here.
Columns and labels:
protein kinase C (PKC) = conditions: osteosarcoma cells of ROS 17/2 rats; Jouishomme et al. 1992, 1994; cited from earlier work
human dermis fibroblasts = test: Effects on the growth of human dermis fibroblasts (DNA cell content, Hoechst 33258); assay type: cell-based; conditions: for DNA after culture for 3 days / DNA after culture for 6 days: % relative to control medium, mean of four tests in triplicate
Experimental: The object of this test is to examine the regenerating and revitalising activities of cultures of human dermis fibroblasts in vitro.
Human dermis fibroblasts were incubated in a standard medium for cell cultures with foetal calf serum (FCS). After culture for one day at 37° C. and with a 5% content of CO2, the medium was changed for a standard medium with different concentrations of peptides. After further incubation for three days and six days, the number of living cells was established by establishing the DNA cell content with a fluorescent probe (Hoechst 33258).

human dermal fibroblast = test: Human dermal fibroblast mRNA profile on cDNA-array (Panhuman 10K); assay type: cell-based; conditions: for Expression evolution / Log2 (treated/non-treated): 5 μg/ml
Experimental: The aim of this study is to detect the variation of mRNA profile of human dermal fibroblast induced by treatment with the PTH(29-32) peptide fragment.
Normal human dermal fibroblast were cultured in standard medium supplemented with foetal calf serum (FCS) during three days in a 5% CO2 atmosphere. After cultures, the medium was changed by a standard medium either supplemented with PTH(29-32) peptide fragment at 5 μg/ml or not. After an incubation of either 3 or 24 hours, cultures were arrested and total RNAs of the different cultures were extracted. The cDNAs obtained from peptide-treated RNAs or from non-treated RNAs were labelled with cyanine-3 and cyanine-5, respectively.
Mixture of treated and non-treated cDNAs were hybridised on commercially Panhuman® 10K (MW Biotech, Roissy Charles-de-Gaulle, France) cDNA-array allowing to study near to 10,000 gene expressions. After highly stringent washing, cyanine-3 and cyanine-5 fluorescences were measured, allowing to evaluate a […] expression ratio of each analyzed gene.
Results are expressed as Log2 of the ratio between the measured expression of genes in the treated vs non-treated conditions.

lumican = test: Stimulation of the synthesis of lumican on aged human dermal fibroblasts (immunocytochemistry, image analysis); assay type: cell-based; conditions: aged human dermal fibroblasts in culture
Experimental: Human dermal fibroblasts cell suspension were prepared by standard digestion by collagenase of human adult dermis specimens collected from plastic surgery.
After repeated passages (Hayflick model) to mimic ageing in vitro, human dermal fibroblasts were seeded in DMEM for 2 days at 37° C., CO2=5%. Then, acetyl-QDVH (1 and 3 μg/ml) is introduced and after 6 days of incubation at 37° C., CO2=5%, the expression of the lumican synthesis was evaluated on glass slides by immunocytochemistry.
Quantification of the staining was carried out by image analysis.
The results are expressed as the sum of the product of number of pixels by green detected values (arbitrary unit).

collagen type I = test: Collagen type I gene expression in human dermal fibroblasts (quantitative RT-PCR); assay type: cell-based; conditions: for Ratio versus calibrator (collagen type I mRNA): incubation for 1 day, EF1α reference gene; for rate of collagen type I gene expression (in words): human dermal fibroblasts
Experimental: Human dermal fibroblasts are seeded and incubated for 3 to 5 days at 37° C., CO2=5%.
After exchange of cell culture medium to a defined cell culture medium with the products to be tested, incubation for 1 day at 37° C., CO2=5%. The recovering of cells and numeration before recovering of RNA from human dermal fibroblasts cultured in vitro.
The level of mRNA encoding the collagen type I was evaluated by quantitative RT-PCR or real time RT-PCR.
The results are firstly expressed by the crossing point (CP) which refers to the number of cycle required for the rising of a distinct fluorescence. Then the results of each sample, are calculated as a ratio referring to a reference gene or “house keeping” gene: CP of target/CP of reference gene. EF1α gene was used as internal control gene to normalise the mRNA evaluation.

[1] = col1a1, alpha 1 type i collagen, 3 h incubation
[2] = cspg2, chondroitin sulfate 2 (versican), 3 h incubation
[3] = cspg2, chondroitin sulfate 2 (versican), 24 h incubation
[4] = ctgf, connective tissue growth factor, 3 h incubation
[5] = ctgf, connective tissue growth factor, 24 h incubation
[6] = fgf2, fibroblast growth factor 2, 3 h incubation
[7] = gpc1, glypican 1 precursor, 3 h incubation
[8] = gpc1, glypican 1 precursor, 24 h incubation
[9] = itga2b, integrin alpha 2b, 3 h incubation
[10] = itgb4, integrin, beta 4, 24 h incubation
[11] = itgb5, integrin, beta 5, 3 h incubation
[12] = itgb5, integrin, beta 5, 24 h incubation
[13] = nid, nidogen (enactin), 3 h incubation
[14] = nid, nidogen (enactin), 24 h incubation
[15] = tgfbr3, transforming growth factor, beta receptor III (betaglycan), 3 h incubation
[16] = tgfbr3, transforming growth factor, beta receptor III (betaglycan), 24 h incubation
[17] = thbs1, thrombospondin 1, 24 h incubation
[18] = timp1, tissue inhibitor of metalloproteinase 1, 3 h incubation

For “Gln-Asp-Val-His (QDVH; Fragment of a parathyroid hormone)”, the “activation of protein kinase C (in words)” value (protein kinase C (PKC)) is listed as “minimum domain of PTH in a position to function fully in the activation of PKC”, the “growth of human dermis fibroblasts (in words)” value (human dermis fibroblasts; fibroblasts cultivated from biopsies of healthy adult subjects) is listed as “stimulates the growth of human dermis fibroblasts” and the “DNA after culture for 3 days” value (human dermis fibroblasts; peptide 0.001 %) is listed as 162%. For the same substance, the “DNA after culture for 6 days” value (human dermis fibroblasts; peptide 0.001 %) was 119%, the “DNA after culture for 3 days” value (human dermis fibroblasts; peptide 0.003 %) was 155% and the “DNA after culture for 6 days” value (human dermis fibroblasts; peptide 0.003 %) was 115%. For the same substance, the “persistence of growth-stimulating activity (in words)” value (human dermis fibroblasts; without any change in the cell culture medium) was “still detectable after 6 days”, the Expression evolution (human dermal fibroblast; bgn, biglycan, 3 h incubation) was “increase” and the “Log2 (treated/non-treated)” value (human dermal fibroblast; bgn, biglycan, 3 h incubation) was 2.16. The Expression evolution (human dermal fibroblast; bgn, biglycan, 24 h incubation) was “increase”, the “Log2 (treated/non-treated)” value (human dermal fibroblast; bgn, biglycan, 24 h incubation) was 0.66 and the Expression evolution (human dermal fibroblast; [1]) was “increase”. The “Log2 (treated/non-treated)” value (human dermal fibroblast; [1]) was 0.93, the Expression evolution (human dermal fibroblast; [2]) was “increase” and the “Log2 (treated/non-treated)” value (human dermal fibroblast; [2]) was 1.32. The Expression evolution (human dermal fibroblast; [3]) was “increase”, the “Log2 (treated/non-treated)” value (human dermal fibroblast; [3]) was 1.20 and the Expression evolution (human dermal fibroblast; [4]) was “increase”. For the same substance, the “Log2 (treated/non-treated)” value (human dermal fibroblast; [4]) was 0.77, the Expression evolution (human dermal fibroblast; [5]) was “increase” and the “Log2 (treated/non-treated)” value (human dermal fibroblast; [5]) was 0.74. For the same substance, the Expression evolution (human dermal fibroblast; [6]) was “increase”, the “Log2 (treated/non-treated)” value (human dermal fibroblast; [6]) was 0.86 and the Expression evolution (human dermal fibroblast; [7]) was “no variation”. For the same substance, the “Log2 (treated/non-treated)” value (human dermal fibroblast; [7]) was −0.17, the Expression evolution (human dermal fibroblast; [8]) was “increase” and the “Log2 (treated/non-treated)” value (human dermal fibroblast; [8]) was 0.73. The “expression of fibroblast genes (in words)” value (human dermal fibroblast; growth factors, extra-cellular matrix components, DEJ components) was “stimulates the expression of some genes”, the Expression evolution (human dermal fibroblast; [9]) was “increase” and the “Log2 (treated/non-treated)” value (human dermal fibroblast; [9]) was 0.50. For the same substance, the “Log2 (treated/non-treated)” value (human dermal fibroblast; itga2b, integrin alpha 2b, 24 h incubation) was 0.15, the Expression evolution (human dermal fibroblast; [10]) was “increase” and the “Log2 (treated/non-treated)” value (human dermal fibroblast; [10]) was 1.15. The Expression evolution (human dermal fibroblast; [11]) was “no variation”, the “Log2 (treated/non-treated)” value (human dermal fibroblast; [11]) was 0.05 and the Expression evolution (human dermal fibroblast; [12]) was “increase”. The “Log2 (treated/non-treated)” value (human dermal fibroblast; [12]) was 0.68, the Expression evolution (human dermal fibroblast; [13]) was “increase” and the “Log2 (treated/non-treated)” value (human dermal fibroblast; [13]) was 1.76. The Expression evolution (human dermal fibroblast; [14]) was “increase”, the “Log2 (treated/non-treated)” value (human dermal fibroblast; [14]) was 0.58 and the Expression evolution (human dermal fibroblast; [15]) was “increase”. For the same substance, the “Log2 (treated/non-treated)” value (human dermal fibroblast; [15]) was 2.00, the Expression evolution (human dermal fibroblast; [16]) was “increase” and the “Log2 (treated/non-treated)” value (human dermal fibroblast; [16]) was 1.54. For the same substance, the Expression evolution (human dermal fibroblast; [17]) was “increase”, the “Log2 (treated/non-treated)” value (human dermal fibroblast; [17]) was 1.52 and the Expression evolution (human dermal fibroblast; [18]) was “increase”. For the same substance, the “Log2 (treated/non-treated)” value (human dermal fibroblast; [18]) was 0.15 and the “Log2 (treated/non-treated)” value (human dermal fibroblast; timp1, tissue inhibitor of metalloproteinase 1, 24 h incubation) was −0.25.

For “IL-4: IL4 (positive control) obtained from SIGMA [reference compound]”, the “lumican expression (in words)” value (lumican) was “increase of lumican expression”.

In the case of “Leu-Gln-Asp-Val-His-Asn-Phe (LQDVHNF; Fragment of a parathyroid hormone) [PTH region (28 to 34)]”, the “activation of protein kinase C (in words)” value (protein kinase C (PKC)) is listed as “stimulator of the protein kinase C (PKC)”.

In the case of TGFβ [reference compound], the “Ratio versus calibrator (collagen type I mRNA)” value (“Ratio versus calibrator” below) (collagen type I; 10 ng/ml) is reported as 2.12 and the “rate of collagen type I gene expression (in words)” value (collagen type I) is reported as “strongly enhanced”.

For “acetyl-Gln-Asp-Val-His (Ac-QDVH) [Acetyl-QDVH, acetylated PTH (29-32) peptide fragment]”, the “Ratio versus calibrator” value (collagen type I; 3 μg/ml) was 1.05, the “Ratio versus calibrator” value (collagen type I; 10 μg/ml) was 1.18 and the “rate of collagen type I gene expression (in words)” value (collagen type I) was “significantly enhanced”. For the same substance, the “lumican expression (in words)” value (lumican; listed as acetyl-Gln-Asp-Val-His) was “increase of lumican expression” and the “lumican expression (in words)” value (lumican; listed as acetyl-QDVH) was “significantly stimulated the expression of lumican with a dose-dependent effect”.
